Data on 1 compound can be found in patent publication US20120136003A1, “COMPOUNDS, COMPOSITIONS AND METHODS COMPRISING 1,3,4-OXADIAZOLE DERIVATIVES” (Institute For Oneworld Health, priority 2009, published 2012).

Experiment [1] deals with mice (CD1 strain), intestinal loops with cholera toxin (CTX). The conditions noted are these: mouse, in vivo.
In experiment [2] the target is T1, CFTR (Homo sapiens, UniProt P13569). Put plainly: CHO-CFTR assay (FLIPR assay). It counts as cell-based. The arrangement: expressed in transfected cells; host or cells: CHO-K1 cells, stably transfected. The conditions noted are these: same assay conditions (FLIPR assay); read-out: IC50 value in the CHO-CFTR cell line.
Target sequence in this assay (P13569 whole entry, species assumed): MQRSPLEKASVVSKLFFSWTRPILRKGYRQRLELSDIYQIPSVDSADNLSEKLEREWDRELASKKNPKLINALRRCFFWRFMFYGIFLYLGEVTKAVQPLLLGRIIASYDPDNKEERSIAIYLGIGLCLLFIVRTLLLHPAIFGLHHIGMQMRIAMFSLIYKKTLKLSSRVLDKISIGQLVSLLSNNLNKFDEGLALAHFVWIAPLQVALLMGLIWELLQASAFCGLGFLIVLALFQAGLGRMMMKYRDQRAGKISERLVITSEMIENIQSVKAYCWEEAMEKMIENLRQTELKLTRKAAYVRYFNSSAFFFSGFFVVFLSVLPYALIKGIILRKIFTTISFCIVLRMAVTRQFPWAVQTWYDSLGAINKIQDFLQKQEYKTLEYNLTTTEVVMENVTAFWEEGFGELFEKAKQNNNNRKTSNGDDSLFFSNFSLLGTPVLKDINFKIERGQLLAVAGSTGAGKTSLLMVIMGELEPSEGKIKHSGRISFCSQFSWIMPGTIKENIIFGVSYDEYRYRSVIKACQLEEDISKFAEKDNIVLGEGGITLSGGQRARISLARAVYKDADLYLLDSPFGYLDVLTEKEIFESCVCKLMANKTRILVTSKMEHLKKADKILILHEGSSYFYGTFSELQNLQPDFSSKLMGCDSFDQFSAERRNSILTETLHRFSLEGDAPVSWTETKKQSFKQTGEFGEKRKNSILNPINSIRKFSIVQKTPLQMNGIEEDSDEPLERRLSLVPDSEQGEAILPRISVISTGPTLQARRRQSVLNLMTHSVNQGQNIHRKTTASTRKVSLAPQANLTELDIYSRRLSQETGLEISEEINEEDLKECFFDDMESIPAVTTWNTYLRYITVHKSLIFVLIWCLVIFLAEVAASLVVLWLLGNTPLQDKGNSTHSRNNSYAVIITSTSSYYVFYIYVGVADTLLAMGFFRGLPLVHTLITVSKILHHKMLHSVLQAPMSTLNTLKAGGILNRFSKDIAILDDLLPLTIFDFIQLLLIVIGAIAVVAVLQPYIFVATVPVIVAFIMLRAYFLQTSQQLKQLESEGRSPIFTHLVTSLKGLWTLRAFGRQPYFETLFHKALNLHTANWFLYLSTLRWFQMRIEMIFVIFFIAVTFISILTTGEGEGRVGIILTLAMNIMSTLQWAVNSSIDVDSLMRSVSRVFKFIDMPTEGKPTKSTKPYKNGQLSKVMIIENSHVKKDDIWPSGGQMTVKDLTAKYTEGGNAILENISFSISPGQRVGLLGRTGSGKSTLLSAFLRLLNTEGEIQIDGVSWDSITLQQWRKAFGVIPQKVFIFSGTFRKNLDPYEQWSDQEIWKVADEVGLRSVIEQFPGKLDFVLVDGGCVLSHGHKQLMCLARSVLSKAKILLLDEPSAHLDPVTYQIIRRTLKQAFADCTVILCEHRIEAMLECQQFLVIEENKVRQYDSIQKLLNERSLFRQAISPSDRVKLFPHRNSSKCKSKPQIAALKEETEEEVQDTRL
The target of experiment [3] is T1, CFTR. Put plainly: CHO-CFTR IonWorks Quattro (IWQ) population patch clamp. The experiment is classed as cell-based. The arrangement: expressed in transfected cells; host or cells: CHO-K1 cells, stably transfected. To be noted: @-60 mV; room temperature. The protocol:
Currents were recorded at room temperature (21-23° C.) using IonWorks® Quattro™ (Molecular Devices, Inc) Population Patch Clamp (PPC) mode automated electrophysiology recording techniques.
Before recording commenced, a T175 culture flask containing CHO-K^1 cells stably transfected with the CFTR gene were washed with 10 ml of Dulbecco's phosphate buffered saline (without Ca^2+ or Mg^2+) followed by addition of 1 ml of 0.05% Trypsin EDTA (Invitrogen, cat no. 25300054) to the flask. After 1-2 minutes incubation, flasks were gently tapped to lift the cells from the substrate and 10 ml of complete media added. Cells were spun at 1,000 rpm for 3 minutes, followed by re-suspension of the pellet in external buffer and use of the resulting cell suspension at a density of 2×10^6 cells per ml. The external solution used for recording was Dulbecco's phosphate buffered saline (Invitrogen, cat no. 14040091) and contained (in mM) 137.9 NaCl, 2.7 KCl, 0.901 CaCl2, 0.5 MgCl2.6H2O, 1.5 KH2PO4, 8.1 Na2HPO4.7H2O. The internal solution contained the following (in mM): 10 NaCl (Sigma, cat no. S7653), 90 KGluconate (Sigma, cat no. G4500), 30 KF (Sigma, cat no. 60238), 1 MgCl2 (Fluka, cat no. 63020), 5 EGTA (Sigma, cat no. E3889), 10 HEPES (Sigma, cat no. H3375); pH 7.4 with KOH. […]
Target sequence in this assay (P13569 whole entry, species assumed): as above

The target of experiment [4] is T1, CFTR. Briefly: T84 assay (FLIPR membrane potential). On the set-up: Human colonic T84 cells are acquired from the European Collection of Cell Cultures (ECACC); host or cells: T84 human colonic cells. It counts as cell-based. The protocol:
(§1) For example, Human colonic T84 cells can be acquired from the European Collection of Cell Cultures (ECACC) and grown in standard culture conditions as described by the supplier. On the day before assay 25,000 T84 cells per well are plated into standard black walled, clear bottom 384-well assay plates in standard growth medium consisting of DMEM:F12 with 10% FBS and incubated overnight. On the day of the assay the plates are washed using a standard assay buffer (HBSS with 10 mM Hepes) and incubated for 15 minutes in serum free cell culture medium before the addition of a commercially available membrane potential sensitive fluorescent dye (FLIPR Red membrane potential dye, Molecular Devices Corporation). T84 cells are incubated with the FLIPR Red membrane potential dye for 45 minutes in the presence and absence of test compound before being transferred to a commercially available fluorescence imaging plate reader (FLIPR384, Molecular Devices Corporation). Fluorescence levels are monitored continuously every second for 150 seconds; after an initial 10 second baseline, CFTR channel activity is stimulated through the addition of 10 μM forskolin in the presence of 100 μM of the phosphodiesterase inhibitor iso-butyl-methylxanthine (IBMX). Addition of the forskolin leads to the activation of intracellular adenylyl cylase 1, elevating cAMP levels and results in the phosphorylation and opening of CFTR anion channels. CFTR channel opening causes chloride ion efflux and subsequent depolarization of the cells, which is measured by an increase in fluorescence. CFTR inhibitor compounds prevent cell depolarization and the associated increase in fluorescence.
as §1, with “Human colonic” for “For example, Human colonic”, “T84 cells are acquired from” for “T84 cells can be acquired from”, “(ECACC) and are grown in” for “(ECACC) and grown in”, “with 10 Mm Hepes) and” for “with 10 mM Hepes) and”, “1, elevating Camp levels and” for “1, elevating cAMP levels and”
Target sequence in this assay (P13569 whole entry): as the sequence (P13569 whole entry, species assumed) above

Regarding `O=C(c1nnc(-c2cc(Cl)c(O)c(Cl)c2)o1)N1CCN(c2cccc(C(F)(F)F)c2)CC1` [Compound 4, (5-(3,5-dichloro-4-hydroxyphenyl)-1,3,4-oxadiazol-2-yl)(4-(3-(trifluoromethyl)phenyl)piperazin-1-yl)methanone], the “closed loop % inhibition” value in experiment [1] turned out to be 92.5%. Moreover, the IC50 in experiment [2] came out at 10.6 µM; in experiment [3] it was 4.71 µM; in experiment [4] it was 16.9 µM.
